One compound from patent US20120178180A1, “METHODS FOR THE IDENTIFICATION OF ZAP-70 INTERACTING MOLECULES AND FOR THE PURIFICATION OF ZAP-70” (priority 2006, published 2012) can be followed below.

This experiment addresses T1, phosphorylated ZAP-70 (Homo sapiens, UniProt P43403).
T1 construct: endogenous in cells; host or cells: Jurkat cells (clone E6-1, ATCC TIB-152), pervanadate treated
T1 sequence (P43403 1-619): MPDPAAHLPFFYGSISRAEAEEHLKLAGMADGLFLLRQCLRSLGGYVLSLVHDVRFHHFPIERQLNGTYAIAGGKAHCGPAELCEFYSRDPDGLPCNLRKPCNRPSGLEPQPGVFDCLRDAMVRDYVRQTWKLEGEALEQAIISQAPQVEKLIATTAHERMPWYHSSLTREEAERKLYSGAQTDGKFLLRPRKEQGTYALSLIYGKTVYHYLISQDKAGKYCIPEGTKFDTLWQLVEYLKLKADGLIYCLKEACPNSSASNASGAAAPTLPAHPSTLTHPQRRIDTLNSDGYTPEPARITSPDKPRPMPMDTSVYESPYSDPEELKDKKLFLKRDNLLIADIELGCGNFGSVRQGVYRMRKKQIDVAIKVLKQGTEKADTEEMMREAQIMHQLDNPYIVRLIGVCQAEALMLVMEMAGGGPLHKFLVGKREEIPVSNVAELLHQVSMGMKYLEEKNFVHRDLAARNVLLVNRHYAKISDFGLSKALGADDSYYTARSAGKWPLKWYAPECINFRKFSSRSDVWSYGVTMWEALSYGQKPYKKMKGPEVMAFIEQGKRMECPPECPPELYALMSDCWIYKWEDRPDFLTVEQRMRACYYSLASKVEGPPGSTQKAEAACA
The experiment is described as follows: Drug pulldown with immobilized aminopyrido-pyrimidin ligand 24 and Western blot analysis. It is filed as binding. The following applies: lysates of non-treated versus pervanadate treated Jurkat cells; Western blot, FIG. 2. As to the method: As biological material cell lysates prepared from non-treated or pervanadate treated Jurkat cells were used. The drug pulldown experiment was performed as described in Example 2 with lysate samples containing 50 mg of protein. Input lysate, flowthrough (non-bound fraction) and SDS-eluates (bound fraction) were separated on a SDS-polyacrylamide gel and transferred to a membrane. The blot was probed first with a general anti-ZAP-70 antibody (2A) and then with an antiphospho-ZAP-70 antibody (2B). Secondary detection antibodies were labeled with fluorescent dyes for detection with the Odyssey infrared imaging system. […]
For Western blot analysis bound proteins were eluted from the affinity matrix and subsequently separated by SDS-Polyacrylamide gel electrophoresis. ZAP-70 was detected with a general monoclonal antibody binding to the non-phosphorylated aminoterminal part of the protein and in addition with a phospho-specific antibody (FIG. 2). […]
Jurkat cells were homogenized in a Potter S homogenizer in lysis buffer: 50 mM Tris-HCl, 0.8% NP40, 5% glycerol, 150 mM NaCl, 1.5 mM MgCl2, 25 mM NaF, 1 mM sodium vanadate, 1 mM DTT, pH 7.5. […] The supernatant was transferred again to a fresh 50 ml falcon tube, the protein concentration was determined by a Bradford assay (BioRad) and samples containing 50 mg of protein per aliquot were prepared. […]
(In western blotting, separated proteins are transferred to a membrane and probed.)

Consider `Cn1c(=O)c(-c2c(Cl)cccc2Cl)cc2cnc(Nc3ccc(CN)cc3)cc21` [aminopyrido-pyrimidin ligand 24, 7-(4-Aminomethyl-phenylamino)-3-(2,6-dichloro-phenyl)-1-methyl-1H-[1,6]naphthyridin-2-one], for which the “pulldown of ZAP-70 by the immobilized ligand” value is on record as “preferentially pulls down a phosphorylated form of ZAP-70”.
